Data reported in patent publication US11612604B2, “Methods of treating cancer with PLK4 inhibitors” (LUDWIG INSTITUTE FOR CANCER RESEARCH LTD, priority 2017, dated 2023).

biological target: T1, PLK4 (Homo sapiens, UniProt O00444); experiment: Activity (IC50) of the Table 1 compounds as PLK4 inhibitors; type: biochemical; settings: Table 1, IC50 class
T1 sequence (O00444 1-970): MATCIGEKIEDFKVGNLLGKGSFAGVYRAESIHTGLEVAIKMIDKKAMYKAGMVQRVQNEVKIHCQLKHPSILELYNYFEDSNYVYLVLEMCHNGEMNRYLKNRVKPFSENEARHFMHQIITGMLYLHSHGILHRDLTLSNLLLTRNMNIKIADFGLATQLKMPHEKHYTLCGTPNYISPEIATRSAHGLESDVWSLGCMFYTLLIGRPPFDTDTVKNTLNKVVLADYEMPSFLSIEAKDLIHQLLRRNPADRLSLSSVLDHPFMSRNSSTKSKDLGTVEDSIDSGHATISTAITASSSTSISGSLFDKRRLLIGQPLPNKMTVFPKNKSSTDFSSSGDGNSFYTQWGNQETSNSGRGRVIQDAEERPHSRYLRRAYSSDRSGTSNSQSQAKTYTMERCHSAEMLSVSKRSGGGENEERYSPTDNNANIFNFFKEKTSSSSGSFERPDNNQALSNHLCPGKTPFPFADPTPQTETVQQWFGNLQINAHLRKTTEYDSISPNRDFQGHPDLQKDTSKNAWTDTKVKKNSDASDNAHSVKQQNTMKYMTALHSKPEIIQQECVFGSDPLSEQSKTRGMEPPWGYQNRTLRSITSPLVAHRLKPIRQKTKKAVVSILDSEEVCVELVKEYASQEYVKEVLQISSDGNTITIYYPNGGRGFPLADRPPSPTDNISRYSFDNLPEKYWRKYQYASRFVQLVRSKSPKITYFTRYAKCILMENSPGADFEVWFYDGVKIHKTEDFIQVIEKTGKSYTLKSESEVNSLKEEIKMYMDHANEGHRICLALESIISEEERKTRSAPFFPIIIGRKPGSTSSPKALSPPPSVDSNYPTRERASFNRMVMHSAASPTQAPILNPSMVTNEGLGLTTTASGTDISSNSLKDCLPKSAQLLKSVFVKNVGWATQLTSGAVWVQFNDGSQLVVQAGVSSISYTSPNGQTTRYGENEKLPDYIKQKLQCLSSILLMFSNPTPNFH

| Compound | IC50 |
| --- | --- |
| Cc1cc(Nc2cc(C)[nH]n2)nc(Sc2ccc(NC(=O)C3CC3)cc2)n1 | < 100 nM |
| COc1c(Nc2cc(C)[nH]n2)nc(Sc2ccc(NC(=O)C3CC3)cc2)nc1N1CCCCC1 | < 100 nM |
| COc1c(Nc2cc(C)[nH]n2)nc(Sc2ccc(NC(=O)C3CC3)cc2)nc1NC(C)C | < 100 nM |
| CNc1nc(Sc2ccc(NC(=O)C3CC3)cc2)nc(Nc2cc(C)[nH]n2)c1OC | < 100 nM |
| CCNc1nc(Sc2ccc(NC(=O)C3CC3)cc2)nc(Nc2cc(C)[nH]n2)c1OC | < 100 nM |
| COc1c(Nc2cc(C)[nH]n2)nc(Sc2ccc(S(=O)(=O)Cc3c(F)c(F)cc(F)c3F)cc2F)nc1N1CCOCC1 | < 100 nM |
| COc1c(Nc2cc(C)[nH]n2)nc(Sc2ccc(S(=O)(=O)Cc3cccc(C(F)(F)F)c3F)cc2F)nc1N1CCOCC1 | < 100 nM |
| COc1c(Nc2cc(C)[nH]n2)nc(Sc2ccc(S(=O)(=O)Cc3cccc(C#N)c3F)cc2F)nc1N1CCOCC1 | < 100 nM |
| COc1c(Nc2cc(C)[nH]n2)nc(Sc2ccc(S(=O)(=O)Cc3cccc(N)c3F)cc2F)nc1N1CCOCC1 | < 100 nM |
| COc1c(Nc2cc(C)[nH]n2)nc(Sc2ccc(S(=O)(=O)C(F)c3cccc([N+](=O)[O-])c3F)cc2F)nc1N1CCOCC1 (stereo not drawn) | < 100 nM |
| COC(=O)c1cccc(CS(=O)(=O)c2ccc(Sc3nc(Nc4cc(C)[nH]n4)c(OC)c(N4CCOCC4)n3)c(F)c2)c1F | < 100 nM |
| COc1c(Nc2cc(C)[nH]n2)nc(Sc2ccc(S(=O)(=O)Cc3cccc(C(=O)N(C)C)c3F)cc2F)nc1N1CCOCC1 | < 100 nM |
| COc1c(Nc2cc(C)[nH]n2)nc(Sc2ccc(S(=O)(=O)Cc3cccc(C(N)=O)c3F)cc2F)nc1N1CCOCC1 | < 100 nM |
| COc1c(Nc2cc(C)[nH]n2)nc(Sc2ccc(S(=O)(=O)Cc3cccc([N+](=O)[O-])c3F)cc2F)nc1N1CCOC[C@@H]1CO | < 100 nM |
| COc1c(Nc2cc(C)[nH]n2)nc(Sc2ccc(S(=O)(=O)Cc3cccc(Br)c3F)cc2F)nc1N1CCCCC1 | < 100 nM |
| COc1c(Nc2cc(C)[nH]n2)nc(Sc2ccc(S(=O)(=O)Cc3cccc(I)c3F)cc2F)nc1N1CCOCC1 | < 100 nM |
| COc1c(Nc2cc(C)[nH]n2)nc(Sc2ccc(S(=O)(=O)c3cccc([N+](=O)[O-])c3)cc2F)nc1N1CCOCC1 | < 100 nM |
| COc1c(Nc2cc(C)[nH]n2)nc(Sc2ccc(S(=O)(=O)c3cccc([N+](=O)[O-])c3F)cc2F)nc1N1CCOCC1 | < 100 nM |
| COc1c(Nc2cc(C)[nH]n2)nc(Sc2ccc(S(=O)(=O)C(F)c3cccc([N+](=O)[O-])c3F)cc2F)nc1N1CCN(CCN(C)C)CC1 (stereo not drawn) | < 100 nM |
| COc1c(Nc2cc(C)[nH]n2)nc(Sc2ccc(C#Cc3cccc([N+](=O)[O-])c3F)cc2F)nc1N1CCOCC1 | < 100 nM |

| Compound | IC50 |
| --- | --- |
| COc1c(Nc2cc(C)[nH]n2)nc(Sc2ccc(/C=C/c3cccc([N+](=O)[O-])c3F)cc2F)nc1N1CCOCC1 | < 100 nM |
| COc1c(Nc2cc(C)[nH]n2)nc(Sc2ccc(CCc3cccc([N+](=O)[O-])c3F)cc2F)nc1N1CCOCC1 | < 100 nM |
| COc1c(Nc2cc(C)[nH]n2)nc(Sc2ccc(-c3cc4cccc([N+](=O)[O-])c4o3)cc2F)nc1N1CCOCC1 | 100 to 1000 nM |
| COc1c(Nc2cc(C)[nH]n2)nc(Sc2ccc(C(=O)Cc3cccc([N+](=O)[O-])c3F)cc2F)nc1N1CCOCC1 | < 100 nM |
| COc1c(Nc2cc(C)[nH]n2)nc(Sc2ccc(C(=O)Oc3cccc([N+](=O)[O-])c3F)cc2F)nc1N1CCOCC1 | < 100 nM |
| COc1c(Nc2cc(C)[nH]n2)nc(Sc2ccc(S(=O)(=O)C(C)(C)c3cccc([N+](=O)[O-])c3F)cc2F)nc1N1CCOCC1 | < 100 nM |
| COc1c(Nc2cc(C)[nH]n2)nc(Sc2ccc(NC(=O)c3cccc([N+](=O)[O-])c3)cc2F)nc1N1CCOCC1 | 100 to 1000 nM |
| COc1c(Nc2cc(C)[nH]n2)nc(Sc2ccc(S(=O)(=O)Cc3cccc(C#N)c3F)cc2F)nc1N1CCN(CCN(C)C)CC1 | < 100 nM |
| COc1c(Nc2cc(C)[nH]n2)nc(Sc2ccc(S(=O)(=O)C(F)c3cccc(C#N)c3F)cc2F)nc1N1CCOCC1 (stereo not drawn) | < 100 nM |
| COc1c(Nc2cc(C)[nH]n2)nc(Sc2ccc(S(=O)(=O)Nc3cccc([N+](=O)[O-])c3)cc2F)nc1N1CCOCC1 | < 100 nM |
| COc1c(Nc2cc(C)[nH]n2)nc(Sc2ccc(S(=O)(=O)Cc3cccc([N+](=O)[O-])c3F)cc2F)nc1N1CCCC[C@@H]1CO | < 100 nM |
| COc1c(Nc2cc(C)[nH]n2)nc(Sc2ccc(S(=O)(=O)Cc3cccc([N+](=O)[O-])c3F)cc2F)nc1N1CCC(CCN(C)C)CC1 | < 100 nM |
| COc1c(Nc2cc(C)[nH]n2)nc(Sc2ccc(NC(=O)Cc3cccc([N+](=O)[O-])c3F)cc2F)nc1N1CCOCC1 | < 100 nM |
| COc1c(Nc2cc(C)[nH]n2)nc(Sc2ccc(S(=O)(=O)C(F)c3cccc([N+](=O)[O-])c3F)cc2F)nc1N1CCC(CCN(C)C)CC1 (stereo not drawn) | < 100 nM |
| COc1c(Nc2cc(C)[nH]n2)nc(Sc2ccc(S(=O)(=O)C(C)(C)c3cccc([N+](=O)[O-])c3F)cc2F)nc1N1CCCCC1 | < 100 nM |
| COc1c(Nc2cc(C)[nH]n2)nc(Sc2ccc(S(=O)(=O)C(C)(C)c3cccc([N+](=O)[O-])c3F)cc2F)nc1N1CCN(CCN(C)C)CC1 | < 100 nM |
| COc1c(Nc2cc(C)[nH]n2)nc(Sc2ccc(S(=O)(=O)C(F)c3cccc([N+](=O)[O-])c3F)cc2F)nc1N1CCOC[C@@H]1CO (stereo partly drawn) | < 100 nM |
| COc1c(Nc2cc(C)[nH]n2)nc(Sc2ccc(S(=O)(=O)C(F)(F)c3c(F)c(F)cc(F)c3F)cc2F)nc1N1CCOCC1 | < 100 nM |
| COc1c(Nc2cc(C)[nH]n2)nc(Sc2ccc(S(=O)(=O)C(C)(C)c3c(F)c(F)c(C)c(F)c3F)cc2F)nc1N1CCOCC1 | < 100 nM |
| COc1c(Nc2cc(C)[nH]n2)nc(Sc2ccc(S(=O)(=O)C(C)(C)c3c(F)c(F)c(C)c(F)c3F)cc2F)nc1N1CCN(CCN(C)C)CC1 | < 100 nM |

| Compound | IC50 |
| --- | --- |
| COc1c(Nc2cc(C)[nH]n2)nc(Sc2ccc(S(=O)(=O)CCc3cccc([N+](=O)[O-])c3F)cc2F)nc1N1CCOCC1 | < 100 nM |
| COc1c(Nc2cc(C)[nH]n2)nc(Sc2ccc(S(=O)(=O)C(C)(C)c3cccc([N+](=O)[O-])c3F)cc2F)nc1N1CCC(CCN(C)C)CC1 | < 100 nM |
| COc1c(Nc2cc(C)[nH]n2)nc(Sc2ccc(S(=O)(=O)C(C)(C)c3cccc([N+](=O)[O-])c3F)cc2F)nc1N1CCOC[C@@H]1CO | < 100 nM |
| COc1c(Nc2cc(C)[nH]n2)nc(Sc2ccc(S(=O)(=O)C(C)(C)c3cccc(Cl)c3F)cc2F)nc1N1CCOCC1 | < 100 nM |
| COc1c(Nc2cc(C)[nH]n2)nc(Sc2ccc(S(=O)(=O)C(C)(C)c3cccc(Br)c3F)cc2F)nc1N1CCN(CCN(C)C)CC1 | < 100 nM |
| COc1c(Nc2cc(C)[nH]n2)nc(Sc2ccc(S(=O)(=O)C(C)(C)c3cccc(Cl)c3F)cc2F)nc1N1CCN(CCN(C)C)CC1 | < 100 nM |
| COc1c(Nc2cc(C)[nH]n2)nc(Sc2ccc(S(=O)(=O)C(C)(C)c3cc(F)cc(Cl)c3F)cc2F)nc1N1CCOCC1 | < 100 nM |
| COc1c(Nc2cc(C)[nH]n2)nc(Sc2ccc(S(=O)(=O)C(F)c3cc(F)cc([N+](=O)[O-])c3F)cc2F)nc1N1CCOCC1 (stereo not drawn) | < 100 nM |
| COc1c(Nc2cc(C)[nH]n2)nc(Sc2ccc(S(=O)(=O)C(C)(C)c3cccc([N+](=O)[O-])c3F)cc2F)nc1N1CCC(N(C)C)CC1 | < 100 nM |
| COc1c(Nc2cc(C)[nH]n2)nc(Sc2ccc(S(=O)(=O)C(C)(C)c3cccc([N+](=O)[O-])c3F)cc2F)nc1N1CCN(C)CC1 | < 100 nM |
| COc1c(Nc2cc(C)[nH]n2)nc(Sc2ccc(S(=O)(=O)C(C)(C)c3cccc([N+](=O)[O-])c3F)cc2F)nc1N1CCNCC1 | < 100 nM |
| COc1c(Nc2cc(C)[nH]n2)nc(Sc2ccc(S(=O)(=O)C(C)(C)c3cccc([N+](=O)[O-])c3F)cc2F)nc1N1CCCC(N(C)C)C1 (stereo not drawn) | < 100 nM |
| COc1c(Nc2cc(C)[nH]n2)nc(Sc2ccc(S(=O)(=O)C(C)(C)c3cc(F)cc([N+](=O)[O-])c3F)cc2F)nc1N1CCC(CCN(C)C)CC1 | < 100 nM |
| COc1c(Nc2cc(C)[nH]n2)nc(Sc2ccc(S(=O)(=O)C(C)(C)c3cccc(Cl)c3F)cc2F)nc1N1CCC(CCN(C)C)CC1 | < 100 nM |
| COc1c(Nc2cc(C)[nH]n2)nc(Sc2ccc(S(=O)(=O)C(C)(C)c3cccc([N+](=O)[O-])c3F)cc2F)nc1N1CCC(CCCN(C)C)CC1 | < 100 nM |
| COc1c(Nc2cc(C)[nH]n2)nc(Sc2ccc(S(=O)(=O)C(C)(C)c3cc(F)cc(Cl)c3F)cc2F)nc1N1CCC(CCN(C)C)CC1 | < 100 nM |
| COc1c(Nc2cc(C)[nH]n2)nc(Sc2ccc(S(=O)(=O)C(C)(C)c3cccc([N+](=O)[O-])c3F)cc2F)nc1N1CCC(CN(C)C)CC1 | < 100 nM |
| COc1c(Nc2cc(C)[nH]n2)nc(Sc2ccc(S(=O)(=O)C(C)(C)c3cccc([N+](=O)[O-])c3F)cc2F)nc1N1CCC(CC(=O)N(C)C)CC1 | < 100 nM |
| COc1c(Nc2cc(C)[nH]n2)nc(Sc2ccc(S(=O)(=O)C(C)(C)c3cccc([N+](=O)[O-])c3F)cc2F)nc1N(C)C | < 100 nM |
| COc1c(Nc2cc(C)[nH]n2)nc(Sc2ccc(S(=O)(=O)C(C)(C)c3cccc([N+](=O)[O-])c3F)cc2F)nc1N1CCC(CCNC(C)=O)CC1 | < 100 nM |
